Data published in ChEMBL document CHEMBL3045720, “Synthesis and antifungal activity of 2-chloromethyl-1H-benzimidazole derivatives against phytopathogenic fungi in vitro” (J Agric Food Chem, 2013).
≈ marks a conversion by molar mass, not a printed value.

What was measured:
[1] = tested on: Colletotrichum gloeosporioides; assay: Antifungal activity against Colletotrichum gloeosporioides assessed as inhibition of mycelium growth […]; type: functional, organism-based
[2] = tested on: Colletotrichum gloeosporioides; assay: Antifungal activity against Colletotrichum gloeosporioides assessed as inhibition of mycelium growth at 100 ug/ml after 3 to 4 days; details: 72 to 96 h, read-out: GI
Alternaria solani [3] = assay: Antifungal activity against Alternaria solani assessed as inhibition of mycelium growth after 1 week; type: functional, organism-based
Cytospora [4] = assay: Antifungal activity against Cytospora sp. assessed as […]; type: functional, organism-based
Fusarium solani [5] = assay: Antifungal activity against Fusarium solani assessed as inhibition of mycelium growth after 1 week; type: functional, organism-based
Botrytis cinerea [6] = assay: Antifungal activity against Botryotinia fuckeliana assessed as inhibition of mycelium growth after 1 week; type: functional, organism-based; details: 168 h
Fusarium solani [7] = assay: Antifungal activity against Fusarium solani assessed as inhibition of mycelium growth at 100 ug/ml […]; type: functional; details: 168 h, read-out: GI
Alternaria solani [8] = assay: Antifungal activity against Alternaria solani assessed as inhibition of mycelium growth at 100 ug/ml […]; type: functional; details: 168 h, read-out: GI
Botrytis cinerea [9] = assay: Antifungal activity against Botryotinia fuckeliana assessed as inhibition of mycelium growth at 100 ug/ml […]; type: functional; details: 168 h, read-out: GI
Cytospora [10] = assay: Antifungal activity against Cytospora sp. assessed as inhibition of mycelium growth at 100 ug/ml after 3 to 4 days; details: 72 to 96 h, read-out: GI
[11] = Colletotrichum gloeosporioides, read-out: IC50
[12] = Alternaria solani, 168 h, read-out: IC50
[13] = Cytospora, 168 h, read-out: IC50
[14] = Fusarium solani, 168 h, read-out: IC50

SMILES: CC(=O)c1ccc(OCc2nc3ccccc3n2C)cc1
- IC50 [1, 11]: > 120 µg/mL
- inhibition of growth at 100 µg/mL [2]: 38.1%
- IC50 (Alternaria solani [3]; [12]): > 100 µg/mL
- IC50 (Cytospora [4]; [13]): 50.7 µg/mL (≈ 181 µM)
- IC50 (Fusarium solani [5]; [14]): 39 µg/mL (≈ 139 µM)
- IC50 (Botrytis cinerea [6]): 89.6 µg/mL (≈ 320 µM)
- inhibition of growth at 100 µg/mL (Fusarium solani [7]): 81.8%
- inhibition of growth at 100 µg/mL (Alternaria solani [8]): 55.7%
- inhibition of growth at 100 µg/mL (Botrytis cinerea [9]): 65.4%
- inhibition of growth at 100 µg/mL (Cytospora [10]): 87.1%

SMILES: Cn1c(COc2ccccc2)nc2ccccc21
- IC50 [1, 11]: 20.8 µg/mL (≈ 87.1 µM)
- inhibition of growth at 100 µg/mL [2]: 87.3%
- IC50 (Alternaria solani [3]; [12]): 27.6 µg/mL (≈ 116 µM)
- IC50 (Cytospora [4]; [13]): 50 µg/mL (≈ 210 µM)
- IC50 (Fusarium solani [5]; [14]): 18.6 µg/mL (≈ 78.1 µM)
- IC50 (Botrytis cinerea [6]): > 150 µg/mL
- inhibition of growth at 100 µg/mL (Fusarium solani [7]): 84.5%
- inhibition of growth at 100 µg/mL (Alternaria solani [8]): 75.4%
- inhibition of growth at 100 µg/mL (Botrytis cinerea [9]): 29.8%
- inhibition of growth at 100 µg/mL (Cytospora [10]): 84.2%

SMILES: CS(=O)(=O)n1c(CCl)nc2ccccc21
- IC50 [1, 11]: 11.4 µg/mL (≈ 46.5 µM)
- inhibition of growth at 100 µg/mL [2]: 100%
- IC50 (Alternaria solani [3]; [12]): > 100 µg/mL
- IC50 (Cytospora [4]; [13]): 31 µg/mL (≈ 127 µM)
- IC50 (Fusarium solani [5]; [14]): 40.1 µg/mL (≈ 164 µM)
- IC50 (Botrytis cinerea [6]): 57.7 µg/mL (≈ 236 µM)
- inhibition of growth at 100 µg/mL (Fusarium solani [7]): 79.2%
- inhibition of growth at 100 µg/mL (Alternaria solani [8]): 68%
- inhibition of growth at 100 µg/mL (Botrytis cinerea [9]): 79.9%
- inhibition of growth at 100 µg/mL (Cytospora [10]): 100%

SMILES: Cn1c(COc2ccc(F)cc2)nc2ccccc21
- IC50 [1, 11]: > 100 µg/mL
- inhibition of growth at 100 µg/mL [2]: 62.7%
- IC50 (Alternaria solani [3]; [12]): 69.3 µg/mL (≈ 271 µM)
- IC50 (Cytospora [4]; [13]): 58.2 µg/mL (≈ 227 µM)
- IC50 (Fusarium solani [5]; [14]): 31.5 µg/mL (≈ 123 µM)
- IC50 (Botrytis cinerea [6]): > 120 µg/mL
- inhibition of growth at 100 µg/mL (Fusarium solani [7]): 83.9%
- inhibition of growth at 100 µg/mL (Alternaria solani [8]): 85.2%
- inhibition of growth at 100 µg/mL (Botrytis cinerea [9]): 47.4%
- inhibition of growth at 100 µg/mL (Cytospora [10]): 80.6%

SMILES: Cc1cc(O)no1 [HYMEXAZOL]
- IC50 [1, 11]: > 100 µg/mL
- inhibition of growth at 100 µg/mL [2]: 49.2%
- IC50 (Alternaria solani [3]; [12]): 14 µg/mL (≈ 142 µM)
- IC50 (Cytospora [4]; [13]): > 100 µg/mL
- IC50 (Fusarium solani [5]; [14]): 38.5 µg/mL (≈ 388 µM)
- IC50 (Botrytis cinerea [6]): 8.92 µg/mL (≈ 90 µM)
- inhibition of growth at 100 µg/mL (Fusarium solani [7]): 72.5%
- inhibition of growth at 100 µg/mL (Alternaria solani [8]): 80.3%
- inhibition of growth at 100 µg/mL (Botrytis cinerea [9]): 100%
- inhibition of growth at 100 µg/mL (Cytospora [10]): 38.9%

SMILES: O=S(=O)(c1ccc(Cl)cc1)n1c(CCl)nc2ccccc21
- IC50 [1, 11]: 22.3 µg/mL (≈ 65.3 µM)
- inhibition of growth at 100 µg/mL [2]: 74.6%
- IC50 (Alternaria solani [3]): Not Active
- IC50 (Cytospora [4]): Not Active
- IC50 (Fusarium solani [5]): Not Active
- IC50 (Botrytis cinerea [6]): > 100 µg/mL
- inhibition of growth at 100 µg/mL (Fusarium solani [7]): 28.1%
- inhibition of growth at 100 µg/mL (Alternaria solani [8]): 31.9%
- inhibition of growth at 100 µg/mL (Botrytis cinerea [9]): 57.3%
- inhibition of growth at 100 µg/mL (Cytospora [10]): 27.4%

SMILES: CC(=O)c1cccc(OCc2nc3ccccc3n2C)c1
- IC50 [1, 11]: > 120 µg/mL
- inhibition of growth at 100 µg/mL [2]: 41.3%
- IC50 (Alternaria solani [3]; [12]): > 100 µg/mL
- IC50 (Cytospora [4]; [13]): > 100 µg/mL
- IC50 (Fusarium solani [5]; [14]): 82.4 µg/mL (≈ 294 µM)
- IC50 (Botrytis cinerea [6]): 68.9 µg/mL (≈ 246 µM)
- inhibition of growth at 100 µg/mL (Fusarium solani [7]): 78.5%
- inhibition of growth at 100 µg/mL (Alternaria solani [8]): 64.5%
- inhibition of growth at 100 µg/mL (Botrytis cinerea [9]): 82.5%
- inhibition of growth at 100 µg/mL (Cytospora [10]): 55.5%

SMILES: CCOC(=O)c1ccc(OCc2nc3ccccc3n2C)cc1
- IC50 [1, 11]: 49.7 µg/mL (≈ 160 µM)
- inhibition of growth at 100 µg/mL [2]: 71.7%
- IC50 (Alternaria solani [3]; [12]): > 150 µg/mL
- IC50 (Cytospora [4]; [13]): 52.6 µg/mL (≈ 169 µM)
- IC50 (Fusarium solani [5]; [14]): > 150 µg/mL
- IC50 (Botrytis cinerea [6]): > 150 µg/mL
- inhibition of growth at 100 µg/mL (Fusarium solani [7]): 21.4%
- inhibition of growth at 100 µg/mL (Alternaria solani [8]): 39.1%
- inhibition of growth at 100 µg/mL (Botrytis cinerea [9]): 35.9%
- inhibition of growth at 100 µg/mL (Cytospora [10]): 79.9%

SMILES: Cn1c(COc2ccc3c(c2)OCO3)nc2cc([N+](=O)[O-])ccc21
- IC50 [1]: Not Active
- inhibition of growth at 100 µg/mL [2]: < 5%
- IC50 (Alternaria solani [3]): Not Active
- IC50 (Cytospora [4]): Not Active
- IC50 (Fusarium solani [5]): Not Active
- IC50 (Botrytis cinerea [6]): 69.1 µg/mL (≈ 211 µM)
- inhibition of growth at 100 µg/mL (Fusarium solani [7]): 34.8%
- inhibition of growth at 100 µg/mL (Alternaria solani [8]): 7.22%
- inhibition of growth at 100 µg/mL (Botrytis cinerea [9]): 91.2%
- inhibition of growth at 100 µg/mL (Cytospora [10]): 12.4%

SMILES: Cn1c(COc2ccc(Cl)cc2)nc2cc([N+](=O)[O-])ccc21
- IC50 [1]: Not Active
- inhibition of growth at 100 µg/mL [2]: 6.35%
- IC50 (Alternaria solani [3]): Not Active
- IC50 (Cytospora [4]): Not Active
- IC50 (Fusarium solani [5]): Not Active
- IC50 (Botrytis cinerea [6]): 13.4 µg/mL (≈ 42 µM)
- inhibition of growth at 100 µg/mL (Fusarium solani [7]): < 5%
- inhibition of growth at 100 µg/mL (Alternaria solani [8]): 30.2%
- inhibition of growth at 100 µg/mL (Botrytis cinerea [9]): 100%
- inhibition of growth at 100 µg/mL (Cytospora [10]): 10.2%

SMILES: Cn1c(COc2ccc(Cl)cc2)nc2ccccc21
- IC50 [1, 11]: 41.3 µg/mL (≈ 151 µM)
- inhibition of growth at 100 µg/mL [2]: 90.5%
- IC50 (Alternaria solani [3]; [12]): 62.5 µg/mL (≈ 229 µM)
- IC50 (Cytospora [4]; [13]): 24.9 µg/mL (≈ 91.3 µM)
- IC50 (Fusarium solani [5]; [14]): > 100 µg/mL
- IC50 (Botrytis cinerea [6]): 26.8 µg/mL (≈ 98.3 µM)
- inhibition of growth at 100 µg/mL (Fusarium solani [7]): 64.1%
- inhibition of growth at 100 µg/mL (Alternaria solani [8]): 77.8%
- inhibition of growth at 100 µg/mL (Botrytis cinerea [9]): 83%
- inhibition of growth at 100 µg/mL (Cytospora [10]): 76.3%

SMILES: Cn1c(CCl)nc2ccccc21
- IC50 [1, 11]: 80.3 µg/mL (≈ 444 µM)
- inhibition of growth at 100 µg/mL [2]: 69.6%
- IC50 (Alternaria solani [3]; [12]): > 100 µg/mL
- IC50 (Cytospora [4]; [13]): > 100 µg/mL
- IC50 (Fusarium solani [5]; [14]): > 150 µg/mL
- IC50 (Botrytis cinerea [6]): 68.1 µg/mL (≈ 377 µM)
- inhibition of growth at 100 µg/mL (Fusarium solani [7]): 28.8%
- inhibition of growth at 100 µg/mL (Alternaria solani [8]): 51.6%
- inhibition of growth at 100 µg/mL (Botrytis cinerea [9]): 91.5%
- inhibition of growth at 100 µg/mL (Cytospora [10]): 45.4%
